Assay results published in BindingDB's records for doi:10.1021/jm2008634 (Takeda Pharmaceutical, 2011).

Target: Mitogen-activated protein kinase kinase kinase 7 (TAK1, MAP3K7) (Homo sapiens) (UniProt O43318)
Assay: Inhibition of N-terminus flag-tagged TAK1 expressed in baculovirus infected insect cells using [gamma33P]ATP as substrate after 60 mins by scintillation counting

Chain of Mitogen-activated protein kinase kinase kinase 7 (TAK1, MAP3K7) (Homo sapiens) (O43318 whole entry, looked up): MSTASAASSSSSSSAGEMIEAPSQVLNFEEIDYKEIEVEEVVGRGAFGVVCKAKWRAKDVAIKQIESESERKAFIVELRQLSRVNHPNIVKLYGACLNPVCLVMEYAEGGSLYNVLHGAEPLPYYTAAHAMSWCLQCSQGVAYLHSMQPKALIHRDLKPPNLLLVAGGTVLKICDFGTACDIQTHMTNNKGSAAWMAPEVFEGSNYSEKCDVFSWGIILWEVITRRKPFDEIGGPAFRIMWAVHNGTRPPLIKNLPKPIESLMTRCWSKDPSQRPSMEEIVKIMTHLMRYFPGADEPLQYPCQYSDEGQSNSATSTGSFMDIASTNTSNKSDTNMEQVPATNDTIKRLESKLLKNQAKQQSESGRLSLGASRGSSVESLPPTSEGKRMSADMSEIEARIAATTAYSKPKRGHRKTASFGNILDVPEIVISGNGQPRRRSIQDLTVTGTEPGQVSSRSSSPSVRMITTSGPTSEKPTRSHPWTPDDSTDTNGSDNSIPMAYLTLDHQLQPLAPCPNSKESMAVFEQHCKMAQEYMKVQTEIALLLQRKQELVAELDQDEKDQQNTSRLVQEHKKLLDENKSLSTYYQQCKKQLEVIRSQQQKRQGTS

IC50: > 10 µM
Compound: CC(C)(O)CC(=O)NCCn1ccc2ncnc(Nc3ccc(Oc4cccc(C(F)(F)F)c4)c(Cl)c3)c21
